Test results taken from patent US8399480B2, “Hydroxymethyl pyrrolidines as beta 3 adrenergic receptor agonists” (Merck Sharp & Dohme Corp., priority 2008, dated 2013).

Target: T1, human β3 adrenergic receptor (Homo sapiens, UniProt P13945)
T1 construct: expressed in transfected cells; host or cells: Chinese hamster ovary (CHO) cells, stably transfected
Assay: Functional assay: cAMP production (LANCE TR-FRET) in CHO cells stably transfected with cloned β3 adrenergic receptor
Assay type: cell-based
Conditions: Table 5; read-out: Human β3 Functional
Procedure: Chinese hamster ovary (CHO) cells, stably transfected with the cloned β-adrenergic receptor (β1, β2 or β3) are harvested after 3 days of subculturing. Harvesting of cells is done with Enzyme-free Dissociation Media (Specialty Media). Cells are then counted and resuspended in assay buffer (Hank's Balanced salt solution supplemented with 5 mM HEPES, 0.1% BSA) containing a phosphodiesterase inhibitor (IBMX, 0.6 mM). The reaction is initiated by mixing 6,000 cells in 6 μL with 6 μL Alexa Fluor labeled cAMP antibody (LANCE™ kit) which is then added to an assay well containing 12 μL of compound (diluted in assay buffer to 2× final concentration). The reaction proceeds for 30 min at room temperature and is terminated by the addition of 24 μL detection buffer (LANCE™ kit). The assay plate is then incubated for 1 h at room temperature and time-resolved fluorescence measured on a Perkin Elmer Envision reader or equivalent. The unknown cAMP level is determined by comparing fluorescence levels to a cAMP standard curve.
The non-selective, full agonist β-adrenergic ligand isoproterenol is used at all three receptors to determine maximal stimulation. […] Data are analyzed using Microsoft Excel and Graphpad Prism or an internally developed data analysis software package.

T1 sequence (P13945 whole entry): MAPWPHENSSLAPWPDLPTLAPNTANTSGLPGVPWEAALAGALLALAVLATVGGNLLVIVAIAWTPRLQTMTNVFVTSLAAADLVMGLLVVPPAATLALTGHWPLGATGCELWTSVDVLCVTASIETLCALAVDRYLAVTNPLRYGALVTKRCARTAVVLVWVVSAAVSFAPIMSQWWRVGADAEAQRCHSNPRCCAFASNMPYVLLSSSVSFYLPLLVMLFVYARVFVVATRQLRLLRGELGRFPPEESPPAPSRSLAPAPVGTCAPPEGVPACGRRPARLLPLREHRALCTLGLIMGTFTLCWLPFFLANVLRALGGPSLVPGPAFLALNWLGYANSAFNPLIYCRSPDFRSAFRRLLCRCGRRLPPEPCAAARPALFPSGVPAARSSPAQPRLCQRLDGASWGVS

| SMILES | EC50 [nM] |
| --- | --- |
| Cc1nnc2n1CCCC2C(=O)Nc1ccc(C[C@@H]2CC[C@H]([C@H](O)c3ccccc3)N2)cc1 (single isomer, unassigned) [Example 150] | 1 to 10 |
| Cc1nnc2n1CCCC2C(=O)Nc1ccc(C[C@@H]2CC[C@H]([C@H](O)c3ccccc3)N2)cc1 (single isomer, unassigned) [Example 151] | 1 to 10 |
| O=C(Nc1ccc(C[C@@H]2CC[C@H]([C@H](O)c3ccccc3)N2)cc1)C1CCCn2nnnc21 (single isomer, unassigned) [Example 152] | 11 to 100 |
| O=C(Nc1ccc(C[C@@H]2CC[C@H]([C@H](O)c3ccccc3)N2)cc1)C1CCCn2nnnc21 (single isomer, unassigned) [Example 153] | 11 to 100 |
| O=C(Nc1ccc(C[C@@H]2CC[C@H]([C@H](O)c3ccccc3)N2)cc1)C1CCCn2ccnc21 (single isomer, unassigned) [Example 154] | 1000 to 3000 |
| O=C(Nc1ccc(C[C@@H]2CC[C@H]([C@H](O)c3ccccc3)N2)cc1)C1CCCn2ccnc21 (single isomer, unassigned) [Example 155] | 101 to 1000 |
| O=C(Nc1ccc(C[C@@H]2CC[C@H]([C@H](O)c3ccccc3)N2)cc1)C1CCCc2ccnn21 (single isomer, unassigned) [Example 156] | 1 to 10 |
| O=C(Nc1ccc(C[C@@H]2CC[C@H]([C@H](O)c3ccccc3)N2)cc1)C1CCCc2ccnn21 (single isomer, unassigned) [Example 157] | 11 to 100 |
| CC(C(=O)Nc1ccc(C[C@@H]2CC[C@H]([C@H](O)c3ccccc3)N2)cc1)n1cccnc1=O (single isomer, unassigned) [Example 160] | 1 to 10 |
| CC(C(=O)Nc1ccc(C[C@@H]2CC[C@H]([C@H](O)c3ccccc3)N2)cc1)n1cccnc1=O (single isomer, unassigned) [Example 161] | < 1 |
| CC(C(=O)Nc1ccc(C[C@@H]2CC[C@H]([C@H](O)c3ccccc3)N2)cc1)n1ncccc1=O (single isomer, unassigned) [Example 162] | 1 to 10 |
| Cc1ccc(=O)n(C(C)C(=O)Nc2ccc(C[C@@H]3CC[C@H]([C@H](O)c4ccccc4)N3)cc2)n1 (single isomer, unassigned) [Example 165] | 1 to 10 |
| CC(C(=O)Nc1ccc(C[C@@H]2CC[C@H]([C@H](O)c3ccccc3)N2)cc1)n1cnc2ccccc2c1=O (single isomer, unassigned) [Example 166] | 1 to 10 |
| CC(C(=O)Nc1ccc(C[C@@H]2CC[C@H]([C@H](O)c3ccccc3)N2)cc1)n1cnc2ccccc2c1=O (single isomer, unassigned) [Example 167] | < 1 |
| CC(C(=O)Nc1ccc(C[C@@H]2CC[C@H]([C@H](O)c3ccccc3)N2)cc1)c1nnc[nH]1 (single isomer, unassigned) [Example 168] | 1 to 10 |
| CC(C(=O)Nc1ccc(C[C@@H]2CC[C@H]([C@H](O)c3ccccc3)N2)cc1)n1cnnn1 (single isomer, unassigned) [Example 172] | 1 to 10 |
| CC(C(=O)Nc1ccc(C[C@@H]2CC[C@H]([C@H](O)c3ccccc3)N2)cc1)n1cnnn1 (single isomer, unassigned) [Example 173] | 1 to 10 |
| CC(C(=O)Nc1ccc(C[C@@H]2CC[C@H]([C@H](O)c3ccccc3)N2)cc1)n1cncn1 (single isomer, unassigned) [Example 176] | 1 to 10 |
| CC(C(=O)Nc1ccc(C[C@@H]2CC[C@H]([C@H](O)c3ccccc3)N2)cc1)n1cncn1 (single isomer, unassigned) [Example 177] | 1 to 10 |
| CC(C(=O)Nc1ccc(C[C@@H]2CC[C@H]([C@H](O)c3ccccc3)N2)cc1)n1nccn1 (single isomer, unassigned) [Example 178] | 1 to 10 |
| CC(C(=O)Nc1ccc(C[C@@H]2CC[C@H]([C@H](O)c3ccccc3)N2)cc1)n1nccn1 (single isomer, unassigned) [Example 179] | 1 to 10 |
| CC(C(=O)Nc1ccc(C[C@@H]2CC[C@H]([C@H](O)c3ccccc3)N2)cc1)n1cccn1 (single isomer, unassigned) [Example 181] | 1 to 10 |
| CC(C(=O)Nc1ccc(C[C@@H]2CC[C@H]([C@H](O)c3ccccc3)N2)cc1)n1ccnn1 (single isomer, unassigned) [Example 182] | 11 to 100 |
| CC(C(=O)Nc1ccc(C[C@@H]2CC[C@H]([C@H](O)c3ccccc3)N2)cc1)n1ccnn1 (single isomer, unassigned) [Example 183] | 1 to 10 |
| Cc1cc(C(C)C(=O)Nc2ccc(C[C@@H]3CC[C@H]([C@H](O)c4ccccc4)N3)cc2)[nH]n1 (single isomer, unassigned) [Example 184] | 11 to 100 |

| SMILES | EC50 [nM] |
| --- | --- |
| Cc1cc(C(C)C(=O)Nc2ccc(C[C@@H]3CC[C@H]([C@H](O)c4ccccc4)N3)cc2)[nH]n1 (single isomer, unassigned) [Example 185] | 1 to 10 |
| CC(C(=O)Nc1ccc(CC2CCC(C(O)c3ccccc3)N2)cc1)c1ccn(C)n1 (single isomer, unassigned) [Example 186] | 101 to 1000 |
| CC(C(=O)Nc1ccc(CC2CCC(C(O)c3ccccc3)N2)cc1)c1ccn(C)n1 (single isomer, unassigned) [Example 187] | 1 to 10 |
| COC(=O)c1cn(C(C)C(=O)Nc2ccc(C[C@@H]3CC[C@H]([C@H](O)c4ccccc4)N3)cc2)nn1 (single isomer, unassigned) [Example 188] | 1 to 10 |
| COC(=O)c1cn(C(C)C(=O)Nc2ccc(C[C@@H]3CC[C@H]([C@H](O)c4ccccc4)N3)cc2)nn1 (single isomer, unassigned) [Example 189] | 11 to 100 |
| CC(C(=O)Nc1ccc(C[C@@H]2CC[C@H]([C@H](O)c3ccccc3)N2)cc1)n1cc(C(=O)O)nn1 (single isomer, unassigned) [Example 190] | 11 to 100 |
| CC(C(=O)Nc1ccc(C[C@@H]2CC[C@H]([C@H](O)c3ccccc3)N2)cc1)n1cc(C(=O)O)nn1 (single isomer, unassigned) [Example 191] | 11 to 100 |
| CC(C(=O)Nc1ccc(C[C@@H]2CC[C@H]([C@H](O)c3ccccc3)N2)cc1)n1cc(C(N)=O)nn1 (single isomer, unassigned) [Example 192] | 1 to 10 |
| CC(C(=O)Nc1ccc(C[C@@H]2CC[C@H]([C@H](O)c3ccccc3)N2)cc1)n1cc(C(N)=O)nn1 (single isomer, unassigned) [Example 193] | 11 to 100 |
| COC(=O)c1cnnn1C(C)C(=O)Nc1ccc(C[C@@H]2CC[C@H]([C@H](O)c3ccccc3)N2)cc1 (single isomer, unassigned) [Example 194] | 11 to 100 |
| COC(=O)c1cnnn1C(C)C(=O)Nc1ccc(C[C@@H]2CC[C@H]([C@H](O)c3ccccc3)N2)cc1 (single isomer, unassigned) [Example 195] | 1 to 10 |
| CC(C(=O)Nc1ccc(C[C@@H]2CC[C@H]([C@H](O)c3ccccc3)N2)cc1)n1nncc1C(=O)O (single isomer, unassigned) [Example 196] | 1 to 10 |
| CC(C(=O)Nc1ccc(C[C@@H]2CC[C@H]([C@H](O)c3ccccc3)N2)cc1)n1nncc1C(=O)O (single isomer, unassigned) [Example 197] | 1 to 10 |
| CC(C(=O)Nc1ccc(C[C@@H]2CC[C@H]([C@H](O)c3ccccc3)N2)cc1)n1nncc1C(N)=O (single isomer, unassigned) [Example 198] | 11 to 100 |
| CC(C(=O)Nc1ccc(C[C@@H]2CC[C@H]([C@H](O)c3ccccc3)N2)cc1)n1nncc1C(N)=O (single isomer, unassigned) [Example 199] | 1 to 10 |
| CC(C(=O)Nc1ccc(C[C@@H]2CC[C@H]([C@H](O)c3ccccc3)N2)cc1)c1nccs1 (single isomer, unassigned) [Example 200] | < 1 |
| CC(C(=O)Nc1ccc(C[C@@H]2CC[C@H]([C@H](O)c3ccccc3)N2)cc1)c1nccs1 (single isomer, unassigned) [Example 201] | 1 to 10 |
| CC(C(=O)Nc1ccc(C[C@@H]2CC[C@H]([C@H](O)c3ccccc3)N2)cc1)n1ccccc1=O (single isomer, unassigned) [Example 202] | 1 to 10 |
| CC(C(=O)Nc1ccc(C[C@@H]2CC[C@H]([C@H](O)c3ccccc3)N2)cc1)c1ccccn1 (single isomer, unassigned) [Example 204] | 1 to 10 |
| CC(C(=O)Nc1ccc(C[C@@H]2CC[C@H]([C@H](O)c3ccccc3)N2)cc1)c1ccccn1 (single isomer, unassigned) [Example 205] | 1 to 10 |
| CC(C(=O)Nc1ccc(C[C@@H]2CC[C@H]([C@H](O)c3ccccc3)N2)cc1)c1cnccn1 (single isomer, unassigned) [Example 206] | 1 to 10 |
| CC(C(=O)Nc1ccc(C[C@@H]2CC[C@H]([C@H](O)c3ccccc3)N2)cc1)c1cnccn1 (single isomer, unassigned) [Example 207] | 1 to 10 |
| CC(C(=O)Nc1ccc(C[C@@H]2CC[C@H]([C@H](O)c3ccccc3)N2)cc1)N1CCOC1=O (single isomer, unassigned) [Example 208] | 1 to 10 |
| CC(C(=O)Nc1ccc(C[C@@H]2CC[C@H]([C@H](O)c3ccccc3)N2)cc1)N1CCOC1=O (single isomer, unassigned) [Example 209] | 11 to 100 |
| COc1ncncc1C(C)C(=O)Nc1ccc(C[C@@H]2CC[C@H]([C@H](O)c3ccccc3)N2)cc1 (single isomer, unassigned) [Example 212] | 11 to 100 |
